Source: patent US20240124432A1, “HERBICIDAL COMPOUNDS” (SYNGENTA CROP PROTECTION AG, priority 2020, published 2024)

What was measured:
Type in all cases: in vivo
[1] = tested on: IPOHE; assay: Pre-emergence biological efficacy; conditions: Ipomoea hederacea, 312 h, evaluated after 13 days, read-out: damage to plant (100=total damage to plant; 0=no damage to plant)
How it was run: (§1)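 Damage rated on a 0–100 scale (100 = total) 13 days after spraying in glasshouse conditions of 24/18° C., 15 h light, 50% humidity. Spray applied one day after sowing, using aqueous dilution in 0.2% Genapol XO80 of a 50 g/l IF50 solvent-emulsifier formulation, at the desired final dose.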

[2] = tested on: LOLPE; assay: Pre-emergence biological efficacy; conditions: Lolium perenne, 312 h, evaluated after 13 days, read-out: damage to plant (100=total damage to plant; 0=no damage to plant)
How it was run: as §1

[3] = tested on: ECHCG; assay: Pre-emergence biological efficacy; conditions: Echinochloa crus-galli, 312 h, evaluated after 13 days, read-out: damage to plant (100=total damage to plant; 0=no damage to plant)
How it was run: as §1

[4] = tested on: AMAPA; assay: Pre-emergence biological efficacy; conditions: Amaranthus palmeri, 312 h, evaluated after 13 days, read-out: damage to plant (100=total damage to plant; 0=no damage to plant)
How it was run: as §1

[5] = tested on: EPHHL; assay: Pre-emergence biological efficacy; conditions: Euphorbia heterophylla, 312 h, evaluated after 13 days, read-out: damage to plant (100=total damage to plant; 0=no damage to plant)
How it was run: as §1

[6] = tested on: SETFA; assay: Pre-emergence biological efficacy; conditions: Setaria faberi, 312 h, evaluated after 13 days, read-out: damage to plant (100=total damage to plant; 0=no damage to plant)
How it was run: as §1

[7] = tested on: IPOHE; assay: Post-emergence biological efficacy; conditions: Ipomoea hederacea, 312 h, evaluated after 13 days, read-out: damage to plant (100=total damage to plant; 0=no damage to plant)
How it was run: (§2)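 Pot-grown plants were raised 14 days in a glasshouse (24/19 °C day/night, 16 h light), then sprayed post-emergence with an aqueous dilution of a 50 g/l IF50 formulation stock in 0.2% Genapol XO80. They were kept at 24/18 °C, 15 h light, 50% humidity, and visually scored for damage after 13 days (0 = none, 100 = total).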

[8] = tested on: CHEAL; assay: Post-emergence biological efficacy; conditions: Chenopodium album, 312 h, evaluated after 13 days, read-out: damage to plant (100=total damage to plant; 0=no damage to plant)
How it was run: as §2

[9] = tested on: LOLPE; assay: Post-emergence biological efficacy; conditions: Lolium perenne, 312 h, evaluated after 13 days, read-out: damage to plant (100=total damage to plant; 0=no damage to plant)
How it was run: as §2

[10] = tested on: ECHCG; assay: Post-emergence biological efficacy; conditions: Echinochloa crus-galli, 312 h, evaluated after 13 days, read-out: damage to plant (100=total damage to plant; 0=no damage to plant)
How it was run: as §2

[11] = tested on: DIGSA; assay: Post-emergence biological efficacy; conditions: Digitaria sanguinalis, 312 h, evaluated after 13 days, read-out: damage to plant (100=total damage to plant; 0=no damage to plant)
How it was run: as §2

[12] = tested on: AMAPA; assay: Post-emergence biological efficacy; conditions: Amaranthus palmeri, 312 h, evaluated after 13 days, read-out: damage to plant (100=total damage to plant; 0=no damage to plant)
How it was run: as §2

[13] = tested on: EPHHL; assay: Post-emergence biological efficacy; conditions: Euphorbia heterophylla, 312 h, evaluated after 13 days, read-out: damage to plant (100=total damage to plant; 0=no damage to plant)
How it was run: as §2

[14] = tested on: ELEIN; assay: Post-emergence biological efficacy; conditions: 312 h, evaluated after 13 days, read-out: damage to plant (100=total damage to plant; 0=no damage to plant)
How it was run: as §2

[15] = tested on: SETFA; assay: Post-emergence biological efficacy; conditions: Setaria faberi, 312 h, evaluated after 13 days, read-out: damage to plant (100=total damage to plant; 0=no damage to plant)
How it was run: as §2

Work on `CCOC(=O)C1(C)CC(c2cc(-c3cncc(C(F)(F)F)n3)c(F)cc2Cl)=NO1` (stereo not drawn) [Compound 1-727, Ethyl 3-[2-chloro-4-fluoro-5-[6-(trifluoromethyl)pyrazin-2-yl]phenyl]-5-methyl-4H-isoxazole-5-carboxylate] yielded a pest or weed control at 250 g/ha [1] of 20%, a pest or weed control at 250 g/ha [2] of 0% and a pest or weed control at 250 g/ha [3] of 30%. For the same molecule, the pest or weed control at 250 g/ha [4] was 0%, the pest or weed control at 250 g/ha [5] was 10% and the pest or weed control at 250 g/ha [6] was 10%. The pest or weed control at 250 g/ha [7] was 100%, the pest or weed control at 250 g/ha [8] was 70% and the pest or weed control at 250 g/ha [9] was 20%. It also gave a pest or weed control at 250 g/ha [10] of 90%, a pest or weed control at 250 g/ha [11] of 70% and a pest or weed control at 250 g/ha [12] of 70%. The pest or weed control at 250 g/ha [13] was 70%, the pest or weed control at 250 g/ha [14] was 80% and the pest or weed control at 250 g/ha [15] was 90%.

With `CCOC(=O)C1(C)CC(c2cc(-c3cnc(C)cn3)c(F)cc2Cl)=NO1` (stereo not drawn) [Compound 1-739, Ethyl 3-[2-chloro-4-fluoro-5-(5-methylpyrazin-2-yl)phenyl]-5-methyl-4H-isoxazole-5-carboxylate] the pest or weed control at 250 g/ha [1] was 0%, the pest or weed control at 250 g/ha [2] was 0% and the pest or weed control at 250 g/ha [3] was 0%. For the same molecule, the pest or weed control at 250 g/ha [4] was 0%, the pest or weed control at 250 g/ha [5] was 0% and the pest or weed control at 250 g/ha [6] was 0%. The pest or weed control at 250 g/ha [7] was 50%, the pest or weed control at 250 g/ha [8] was 50% and the pest or weed control at 250 g/ha [9] was 0%. For the same molecule, the pest or weed control at 250 g/ha [10] was 30%, the pest or weed control at 250 g/ha [11] was 30% and the pest or weed control at 250 g/ha [12] was 50%. The pest or weed control at 250 g/ha [13] was 40%, the pest or weed control at 250 g/ha [14] was 50% and the pest or weed control at 250 g/ha [15] was 30%.

`CCOC(=O)C1(C)CC(c2cc(-c3cnc4ccc(C(F)(F)F)cc4n3)c(F)cc2Cl)=NO1` (stereo not drawn) [Compound 1-763, Ethyl 3-[2-chloro-4-fluoro-5-[7-(trifluoromethyl)quinoxalin-2-yl]phenyl]-5-methyl-4H-isoxazole-5-carboxylate] showed a pest or weed control at 250 g/ha [1] of 0%, a pest or weed control at 250 g/ha [2] of 0% and a pest or weed control at 250 g/ha [3] of 0%. The pest or weed control at 250 g/ha [4] was 0%, the pest or weed control at 250 g/ha [5] was 0% and the pest or weed control at 250 g/ha [6] was 0%. For the same molecule, the pest or weed control at 250 g/ha [7] was 10%, the pest or weed control at 250 g/ha [8] was 20% and the pest or weed control at 250 g/ha [9] was 0%. The pest or weed control at 250 g/ha [10] was 0%, the pest or weed control at 250 g/ha [11] was 0% and the pest or weed control at 250 g/ha [12] was 20%. For the same molecule, the pest or weed control at 250 g/ha [13] was 20%, the pest or weed control at 250 g/ha [14] was 0% and the pest or weed control at 250 g/ha [15] was 0%.

Molecule `CCOC(=O)C1(C)CC(c2cc(-c3nccnc3C)c(F)cc2Cl)=NO1` (stereo not drawn) [Compound 1-775, Ethyl 3-[2-chloro-4-fluoro-5-(3-methylpyrazin-2-yl)phenyl]-5-methyl-4H-isoxazole-5-carboxylate] has a pest or weed control at 250 g/ha [1] of 0%, a pest or weed control at 250 g/ha [2] of 0% and a pest or weed control at 250 g/ha [3] of 0%. It also gave a pest or weed control at 250 g/ha [4] of 0%, a pest or weed control at 250 g/ha [5] of 0% and a pest or weed control at 250 g/ha [6] of 0%. It also gave a pest or weed control at 250 g/ha [7] of 30%, a pest or weed control at 250 g/ha [8] of 60% and a pest or weed control at 250 g/ha [9] of 0%. The pest or weed control at 250 g/ha [10] was 20%, the pest or weed control at 250 g/ha [11] was 20% and the pest or weed control at 250 g/ha [12] was 60%. It also gave a pest or weed control at 250 g/ha [13] of 40%, a pest or weed control at 250 g/ha [14] of 50% and a pest or weed control at 250 g/ha [15] of 50%.

`CCOC(=O)C1(C)CC(c2cc(-c3nc(C)cnc3C)c(F)cc2Cl)=NO1` (stereo not drawn) [Compound 1-787, Ethyl 3-[2-chloro-5-(3,6-dimethylpyrazin-2-yl)-4-fluoro-phenyl]-5-methyl-4H-isoxazole-5-carboxylate] showed a pest or weed control at 250 g/ha [1] of 10%, a pest or weed control at 250 g/ha [2] of 20% and a pest or weed control at 250 g/ha [3] of 20%. The pest or weed control at 250 g/ha [4] was 10%, the pest or weed control at 250 g/ha [5] was 10% and the pest or weed control at 250 g/ha [6] was 20%. It also gave a pest or weed control at 250 g/ha [7] of 50%, a pest or weed control at 250 g/ha [8] of 60% and a pest or weed control at 250 g/ha [9] of 20%. For the same molecule, the pest or weed control at 250 g/ha [10] was 40%, the pest or weed control at 250 g/ha [11] was 40% and the pest or weed control at 250 g/ha [12] was 50%. For the same molecule, the pest or weed control at 250 g/ha [13] was 40%, the pest or weed control at 250 g/ha [14] was 60% and the pest or weed control at 250 g/ha [15] was 40%.

For `CCOC(=O)C1(C)CC(c2cc(-c3ncc(C(F)(F)F)nc3Cl)c(F)cc2Cl)=NO1` (stereo not drawn) [Compound 1-811, Ethyl 3-[2-chloro-5-[3-chloro-5-(trifluoromethyl)pyrazin-2-yl]-4-fluoro-phenyl]-5-methyl-4H-isoxazole-5-carboxylate], the pest or weed control at 250 g/ha [1] was 0%, the pest or weed control at 250 g/ha [2] was 10% and the pest or weed control at 250 g/ha [3] was 70%. The pest or weed control at 250 g/ha [4] was 100%, the pest or weed control at 250 g/ha [5] was 100% and the pest or weed control at 250 g/ha [6] was 50%. For the same molecule, the pest or weed control at 250 g/ha [7] was 70%, the pest or weed control at 250 g/ha [8] was 60% and the pest or weed control at 250 g/ha [9] was 70%. For the same molecule, the pest or weed control at 250 g/ha [10] was 50%, the pest or weed control at 250 g/ha [11] was 40% and the pest or weed control at 250 g/ha [12] was 80%. For the same molecule, the pest or weed control at 250 g/ha [13] was 80%, the pest or weed control at 250 g/ha [14] was 90% and the pest or weed control at 250 g/ha [15] was 100%.

In the case of `CCOC(=O)C1(C)CC(c2cc(-c3nccnc3C(F)(F)F)c(F)cc2Cl)=NO1` (stereo not drawn) [Compound 1-823, Ethyl 3-[2-chloro-4-fluoro-5-[3-(trifluoromethyl)pyrazin-2-yl]phenyl]-5-methyl-4H-isoxazole-5-carboxylate], the pest or weed control at 250 g/ha [1] was 90%, the pest or weed control at 250 g/ha [2] was 20% and the pest or weed control at 250 g/ha [3] was 20%. The pest or weed control at 250 g/ha [4] was 0%, the pest or weed control at 250 g/ha [5] was 40% and the pest or weed control at 250 g/ha [6] was 20%. It also gave a pest or weed control at 250 g/ha [7] of 60%, a pest or weed control at 250 g/ha [8] of 60% and a pest or weed control at 250 g/ha [9] of 10%. For the same molecule, the pest or weed control at 250 g/ha [10] was 70%, the pest or weed control at 250 g/ha [11] was 50% and the pest or weed control at 250 g/ha [12] was 60%. It also gave a pest or weed control at 250 g/ha [13] of 60%, a pest or weed control at 250 g/ha [14] of 30% and a pest or weed control at 250 g/ha [15] of 60%.

`CCOC(=O)C1(C)CC(c2cc(-c3cnc4c(c3)OC(F)(F)O4)ccc2C#N)=NO1` (stereo not drawn) [Compound 2-451, Ethyl 3-[2-cyano-5-(2,2-difluoro-[1,3]dioxolo[4,5-b]pyridin-6-yl)phenyl]-5-methyl-4H-isoxazole-5-carboxylate] was tested, and the pest or weed control at 250 g/ha [1] was 0%, the pest or weed control at 250 g/ha [2] was 40% and the pest or weed control at 250 g/ha [3] was 60%. It also gave a pest or weed control at 250 g/ha [4] of 90%, a pest or weed control at 250 g/ha [5] of 0% and a pest or weed control at 250 g/ha [6] of 70%. The pest or weed control at 250 g/ha [7] was 30%, the pest or weed control at 250 g/ha [8] was 50% and the pest or weed control at 250 g/ha [9] was 20%. For the same molecule, the pest or weed control at 250 g/ha [10] was 30%, the pest or weed control at 250 g/ha [11] was 50% and the pest or weed control at 250 g/ha [12] was 40%. The pest or weed control at 250 g/ha [13] was 70%, the pest or weed control at 250 g/ha [14] was 70% and the pest or weed control at 250 g/ha [15] was 40%.
